Read-outs that look alike come from different tables or passages of the source.
Columns and labels:
P-glycoprotein = assay: P-glycoprotein-induction assay (rhodamine123 cell exclusion method) in LS-180 cells; conditions: for % Rh123 accumulation in LS-180 cells after 48 h: control = 100; for EC50: read-out: Pgp induction EC50 value, LS180 cells treated 48 h, Rh123 fluorescence vs concentration
Experimental: P-glycoprotein-induction assay. All synthesized compounds were screened for their ability to induce P-glycoprotein by using rhodamine123 (Rh123) cell exclusion method. In this method, the P-glycoprotein function was evaluated in terms of rhodamine 123 (Rh123) accumulation and efflux. Briefly, the protocol used is as follows: Colorectal LS180 cells Colorectal LS-180 cells [obtained from ECACC (European Collection of Cell Cultures) catalogue number: 87021202; passage number 52] were seeded at a density of 2×10^4 per well of 96 well plate and were allowed to grow for next 24 h. Cells were further incubated with the test compounds, and were diluted to a final concentration of 100 nM and rifampicin (standard) to a final concentration of 10 μM in complete media for 48 h. The final concentration of DMSO was kept at 0.1%. Drugs were removed and cells were incubated with HANKS buffer for 40 minutes before further incubation with HANKS buffer (containing 10 μM of Rh123 as a P-glycoprotein substrate) for 90 minutes. At the end of Rh123 treatment cells were washed four times with cold PBS followed by cell lysis for 1 h by using 200 μl of lysis buffer (0.1% Triton X-100 and 0.2 N NaOH). A total of 100 μl of lysate was used for reading fluorescence of Rh123 at 485 nm/529 nm Samples were normalized by dividing fluorescence of each sample with total protein present in the lysate. The Pgp-induction activity was measured in terms of the % intracellular accumulation of rhodamine 123/total protein inside LS180 cells. The decrease in the % intracellular accumulation (compared to control) of Rh123 indicates induction of P-glycoprotein as shown in Table 1. Rifampicin (10 μM) was used as a reference P-glycoprotein inducer. Statistical comparisons were made between control vs compounds by using Bonferroni test. The p value <0.5 was considered to be significant.
The decrease in % intracellular accumulation (compared to control) of Rh123 indicates induction of Pgp. Rifampicin (10 μM) was used as a reference Pgp inducer.
EC50 determination in p-glycoprotein-induction assay. […] For EC50 determination, different concentrations of compound were used to treat LS180 cells for 48 h. EC50 was determined by plotting fluoroscence of Rh123 against concentration of compound.

[1] = Thermodynamic equilibrium solubility; assay type: physicochemical; conditions: for solubility: 25 °C, thermodynamic from solid
Experimental: Determination of thermodynamic equilibrium solubility. The compounds were first dissolved in methanol to prepare stock solutions (100 and 1000 μg/mL) Different concentrations of stock solutions were pipetted into the 96-well plates and the solvent was evaporated to ensure that solid drug was present in the beginning of the experiment. […] The plates were kept overnight for equilibration of drug in medium. Later, the plates were centrifuged at 3000 rpm for 15 min (Jouan centrifuge BR4i). Supernatant (50 μl) was pipetted into UV 96-well plates (Corning® 96 Well Clear Flat Bottom UV-Transparent Microplate) for analyses with plate reader (SpectraMax Plus384) at λmax of 350 nm. The analyses were performed in triplicate for each compound. The solubility curve of concentration (μg/mL) vs absorbance was plotted to find out saturation point and the corresponding concentration was noted. The solubility of fascaplysin (1) and compounds 6 and 11 was determined.

[2] = biological target: acetylcholinesterase (AChE); conditions: read-out: AChE inhibition IC50; cited from earlier work
[3] = system: mouse leukemia cells L-1210; conditions: read-out: ED50, suppression of proliferation of L-1210 cells; cited from earlier work
[4] = compounds at 5 μM (table footnote), decrease indicates Pgp induction

Compound: 6-chloro-fascaplysin [Compound 5]
- % Rh123 accumulation in LS-180 cells after 48 h (P-glycoprotein; [4]): 59.2 ± 6.7 %

Compound: O=C1c2ccccc2-[n+]2ccc3c([nH]c4ccccc43)c21.[Cl-] [Compound 1, Fascaplysin]
- solubility ([1]; aqueous buffer, phosphate buffer saline, read-out: Solubility in PBS): > 1500 µg/mL
- solubility ([1]; simulated gastric fluid, simulated gastric fluid, read-out: Solubility in SGF): > 1500 µg/mL
- solubility ([1]; simulated intestinal fluid, read-out: Solubility in SIF): > 1500 µg/mL
- solubility ([1]; water, water, 25±1° C., thermodynamic equilibrium, read-out: Solubility in Water): > 800 µg/mL
- Solubility in Water ([1]; water, 25±1° C., thermodynamic equilibrium): >1500 µg/mL
- IC50 [2]: 1490 nM
- EC50 (P-glycoprotein): 2.8 nM
- EC50 [3]: 200 nM

Compound: O=C1c2ccc(Cl)cc2-[n+]2ccc3c([nH]c4ccccc43)c21 [Compound 2, 4-chloro-fascaplysin]
- % Rh123 accumulation in LS-180 cells after 48 h (P-glycoprotein; [4]): 57.1 ± 9.2 %

Compound: O=C1c2cc(F)c(Cl)cc2-[n+]2ccc3c([nH]c4ccccc43)c21 [Compound 3, 4-chloro-5-fluoro-fascaplysin]
- % Rh123 accumulation in LS-180 cells after 48 h (P-glycoprotein; [4]): 55.5 ± 6.9 %

Compound: O=C1c2ccc(Cl)c(Cl)c2-[n+]2ccc3c([nH]c4ccccc43)c21 [Compound 4, 3,4-dichloro-fascaplysin]
- % Rh123 accumulation in LS-180 cells after 48 h (P-glycoprotein; [4]): 57.8 ± 8.3 %

Compound: O=C1c2cc(F)c(F)cc2-[n+]2ccc3c([nH]c4ccccc43)c21 [Compound 6, 4,5-difluoro-fascaplysin]
- Solubility in Water [1]: >1500 µg/mL
- solubility ([1]; aqueous buffer, Solubility in PBS): 80 µg/mL
- solubility ([1]; fassgf or other biorelevant, Solubility in SIF): < 5 µg/mL
- solubility ([1]; simulated gastric fluid, Solubility in SGF): 80 µg/mL
- solubility ([1]; water, Solubility in Water): > 800 µg/mL
- % Rh123 accumulation in LS-180 cells after 48 h (P-glycoprotein; [4]): 49.6 ± 1.2 %
- EC50 (P-glycoprotein): 2 nM

Compound: O=C1c2cc(Cl)ccc2-[n+]2ccc3c([nH]c4ccccc43)c21 [Compound 7, 5-chloro-fascaplysin]
- % Rh123 accumulation in LS-180 cells after 48 h (P-glycoprotein; [4]): 58.7 ± 7.8 %

Compound: Cn1c2ccccc2c2cc[n+](C)c(C(=O)c3ccccc3)c21 [Compound 8, 1-benzoyl-9,N-dimethyl beta-carbolinium iodide]
- % Rh123 accumulation in LS-180 cells after 48 h (P-glycoprotein; [4]): 75.2 ± 9.1 %

Compound: Cn1c2ccccc2c2cc[n+](C)c(C(=O)c3ccccc3Cl)c21 [Compound 9, 1-(2-chloro-benzoyl)-9, N,N-dimethyl beta-carbolinium iodide]
- % Rh123 accumulation in LS-180 cells after 48 h (P-glycoprotein; [4]): 71.4 ± 8.4 %

Compound: Cn1c2ccccc2c2cc[n+](C)c(C(=O)c3c[nH]c4ccccc34)c21 [Compound 10, 1-(3-indoloyl)-9,N-dimethyl beta-carbolinium iodide]
- % Rh123 accumulation in LS-180 cells after 48 h (P-glycoprotein; [4]): 77.6 ± 7.6 %

Compound: Cn1c2ccccc2c2cc[n+](C)c(C(=O)c3ccccc3Br)c21 [Compound 11, 1-(2-bromo-benzoyl)-9,N-dimethyl beta-carbolinium iodide]
- Solubility in Water [1]: 800 µg/mL
- solubility ([1]; water, Solubility in Water): > 800 µg/mL
- % Rh123 accumulation in LS-180 cells after 48 h (P-glycoprotein; [4]): 70.1 ± 6.7 %
- EC50 (P-glycoprotein): 3 nM

Compound: Cn1c2ccccc2c2cc[n+](C)c(C(=O)c3ccc(C(F)(F)F)cc3)c21 [Compound 12, 1-(4-trifluoromethyl-benzoyl)-9,N-dimethyl beta-carbolinium iodide]
- % Rh123 accumulation in LS-180 cells after 48 h (P-glycoprotein; [4]): 78.5 ± 5.8 %

Compound: Cn1c2ccccc2c2cc[n+](C)c(C(=O)c3ccccc3F)c21 [Compound 13, 1-(2-fluoro-benzoyl)-9,N-dimethyl beta-carbolinium iodide]
- % Rh123 accumulation in LS-180 cells after 48 h (P-glycoprotein; [4]): 79.0 ± 6.0 %

Compound: CO[C@H]1/C=C/O[C@@]2(C)Oc3c(C)c(O)c4c(O)c(c(/C=N/N5CCN(C)CC5)c(O)c4c3C2=O)NC(=O)/C(C)=C\C=C\[C@H](C)[C@H](O)[C@@H](C)[C@@H](O)[C@@H](C)[C@H](OC(C)=O)[C@@H]1C [Rifampicin, reference compound]
- % Rh123 accumulation in LS-180 cells after 48 h (P-glycoprotein; rifampicin 10 μM, reference Pgp inducer): 67.1 ± 4.6 %

From patent US10072009B2, “N-substituted beta-carbolinium compounds as potent P-glycoprotein inducers” (Council of Scientific and Industrial Research, priority 2014, dated 2018)
